Laboratory results published in the NIST ThermoML archive (doi:10.1021/je201009c).
Numbers after ± are expanded uncertainties.

Assay: xn = mol fraction of the nth substance listed
Settings: for surface tension liquid-gas: Capillary rise; for viscosity / mass density: 101 kPa, Liquid; for viscosity: Falling or rolling sphere viscometry; for mass density: Vibrating tube method

CC(=O)OCc1ccccc1 [benzyl ethanoate] + OCc1ccccc1
Settings	mass density [kg/m3]	surface tension liquid-gas [mN/m]	viscosity [mPa·s]
293.15 K, x1 = 0.05	1046.29 ± 0.19	–	5.782 ± 0.05
293.15 K, x1 = 0.1001	1047.03 ± 0.19	39.2 ± 0.4	5.319 ± 0.046
293.15 K, x1 = 0.1502	1047.73 ± 0.2	–	4.905 ± 0.043
293.15 K, x1 = 0.2001	1048.38 ± 0.2	39.2 ± 0.4	4.536 ± 0.04
293.15 K, x1 = 0.25	1048.99 ± 0.2	–	4.214 ± 0.038
293.15 K, x1 = 0.3	1049.58 ± 0.21	39.1 ± 0.4	3.927 ± 0.036
293.15 K, x1 = 0.3498	1050.15 ± 0.21	–	3.678 ± 0.034
293.15 K, x1 = 0.4001	1050.71 ± 0.22	39 ± 0.4	3.454 ± 0.033
293.15 K, x1 = 0.45	1051.24 ± 0.22	–	3.252 ± 0.031
293.15 K, x1 = 0.5	1051.77 ± 0.23	38.7 ± 0.4	3.087 ± 0.03
293.15 K, x1 = 0.5501	1052.26 ± 0.23	–	2.93 ± 0.029
293.15 K, x1 = 0.6001	1052.74 ± 0.24	38.4 ± 0.4	2.795 ± 0.028
293.15 K, x1 = 0.65	1053.19 ± 0.24	–	2.684 ± 0.028
293.15 K, x1 = 0.6999	1053.64 ± 0.25	38.1 ± 0.4	2.589 ± 0.027
293.15 K, x1 = 0.7502	1054.03 ± 0.26	–	2.505 ± 0.027
293.15 K, x1 = 0.8	1054.42 ± 0.26	37.8 ± 0.4	2.428 ± 0.026
293.15 K, x1 = 0.85	1054.77 ± 0.27	–	2.376 ± 0.026
293.15 K, x1 = 0.9	1055.11 ± 0.28	37.5 ± 0.4	2.343 ± 0.026
293.15 K, x1 = 0.95	1055.46 ± 0.29	–	2.326 ± 0.026
293.15 K, x1 = 1	1055.81 ± 0.3	37.3 ± 0.5	2.324 ± 0.026
303.15 K, x1 = 0.05	1038.18 ± 0.19	–	4.21 ± 0.038
303.15 K, x1 = 0.1001	1038.83 ± 0.19	38 ± 0.4	3.894 ± 0.036
303.15 K, x1 = 0.1502	1039.44 ± 0.19	–	3.623 ± 0.034
303.15 K, x1 = 0.2001	1040.01 ± 0.2	37.9 ± 0.4	3.378 ± 0.032
303.15 K, x1 = 0.25	1040.58 ± 0.2	–	3.165 ± 0.03
303.15 K, x1 = 0.3	1041.11 ± 0.2	37.8 ± 0.4	2.972 ± 0.029
303.15 K, x1 = 0.3498	1041.61 ± 0.21	–	2.806 ± 0.028
303.15 K, x1 = 0.4001	1042.1 ± 0.21	37.5 ± 0.4	2.662 ± 0.027
303.15 K, x1 = 0.45	1042.57 ± 0.22	–	2.535 ± 0.026
303.15 K, x1 = 0.5	1043.01 ± 0.22	37.1 ± 0.4	2.432 ± 0.026
303.15 K, x1 = 0.5501	1043.43 ± 0.23	–	2.332 ± 0.025
303.15 K, x1 = 0.6001	1043.84 ± 0.23	36.7 ± 0.4	2.234 ± 0.025
303.15 K, x1 = 0.65	1044.24 ± 0.24	–	2.171 ± 0.024
303.15 K, x1 = 0.6999	1044.62 ± 0.25	36.3 ± 0.4	2.091 ± 0.024
303.15 K, x1 = 0.7502	1044.99 ± 0.25	–	2.035 ± 0.024
303.15 K, x1 = 0.8	1045.35 ± 0.26	36 ± 0.4	1.985 ± 0.023
303.15 K, x1 = 0.85	1045.7 ± 0.27	–	1.941 ± 0.023
303.15 K, x1 = 0.9	1046.05 ± 0.27	35.8 ± 0.4	1.902 ± 0.023
303.15 K, x1 = 0.95	1046.4 ± 0.28	–	1.867 ± 0.023
303.15 K, x1 = 1	1046.74 ± 0.29	35.6 ± 0.4	1.836 ± 0.023
313.15 K, x1 = 0.05	1030.21 ± 0.19	–	3.18 ± 0.03
313.15 K, x1 = 0.1001	1030.76 ± 0.19	37 ± 0.4	3.006 ± 0.029
313.15 K, x1 = 0.1502	1031.27 ± 0.19	–	2.848 ± 0.028
313.15 K, x1 = 0.2001	1031.72 ± 0.19	36.8 ± 0.4	2.687 ± 0.027
313.15 K, x1 = 0.25	1032.23 ± 0.2	–	2.536 ± 0.026
313.15 K, x1 = 0.3	1032.67 ± 0.2	36.4 ± 0.4	2.396 ± 0.025
313.15 K, x1 = 0.3498	1033.08 ± 0.21	–	2.265 ± 0.024
313.15 K, x1 = 0.4001	1033.48 ± 0.21	36 ± 0.4	2.154 ± 0.024
313.15 K, x1 = 0.45	1033.86 ± 0.21	–	2.056 ± 0.023
313.15 K, x1 = 0.5	1034.24 ± 0.22	35.6 ± 0.4	1.966 ± 0.023
313.15 K, x1 = 0.5501	1034.6 ± 0.22	–	1.903 ± 0.023
313.15 K, x1 = 0.6001	1034.94 ± 0.23	35.2 ± 0.4	1.832 ± 0.022
313.15 K, x1 = 0.65	1035.27 ± 0.24	–	1.774 ± 0.022
313.15 K, x1 = 0.6999	1035.57 ± 0.24	34.8 ± 0.4	1.728 ± 0.022
313.15 K, x1 = 0.7502	1035.87 ± 0.25	–	1.684 ± 0.022
313.15 K, x1 = 0.8	1036.18 ± 0.26	34.6 ± 0.4	1.646 ± 0.021
313.15 K, x1 = 0.85	1036.48 ± 0.26	–	1.613 ± 0.021
313.15 K, x1 = 0.9	1036.79 ± 0.27	34.4 ± 0.4	1.572 ± 0.021
313.15 K, x1 = 0.95	1037.11 ± 0.28	–	1.524 ± 0.021
313.15 K, x1 = 1	1037.42 ± 0.29	34.3 ± 0.4	1.474 ± 0.021
323.15 K, x1 = 0.05	1021.94 ± 0.18	–	2.45 ± 0.026
323.15 K, x1 = 0.1001	1022.36 ± 0.19	36 ± 0.4	2.349 ± 0.025
323.15 K, x1 = 0.1502	1022.75 ± 0.19	–	2.232 ± 0.024
323.15 K, x1 = 0.2001	1023.12 ± 0.19	35.7 ± 0.4	2.125 ± 0.024
323.15 K, x1 = 0.25	1023.48 ± 0.19	–	2.021 ± 0.023
323.15 K, x1 = 0.3	1023.81 ± 0.2	35.2 ± 0.4	1.925 ± 0.022
323.15 K, x1 = 0.3498	1024.13 ± 0.2	–	1.838 ± 0.022
323.15 K, x1 = 0.4001	1024.44 ± 0.21	34.8 ± 0.4	1.756 ± 0.022
323.15 K, x1 = 0.45	1024.73 ± 0.21	–	1.683 ± 0.021
323.15 K, x1 = 0.5	1025.02 ± 0.22	34.3 ± 0.4	1.62 ± 0.021
323.15 K, x1 = 0.5501	1025.28 ± 0.22	–	1.561 ± 0.021
323.15 K, x1 = 0.6001	1025.53 ± 0.23	33.9 ± 0.4	1.521 ± 0.021
323.15 K, x1 = 0.65	1025.79 ± 0.23	–	1.482 ± 0.02
323.15 K, x1 = 0.6999	1026.04 ± 0.24	33.5 ± 0.4	1.444 ± 0.02
323.15 K, x1 = 0.7502	1026.28 ± 0.24	–	1.41 ± 0.02
323.15 K, x1 = 0.8	1026.52 ± 0.25	33.4 ± 0.4	1.387 ± 0.02
323.15 K, x1 = 0.85	1026.77 ± 0.26	–	1.361 ± 0.02
323.15 K, x1 = 0.9	1027.01 ± 0.26	33.3 ± 0.4	1.339 ± 0.02
323.15 K, x1 = 0.95	1027.26 ± 0.27	–	1.308 ± 0.02
323.15 K, x1 = 1	1027.51 ± 0.28	33.2 ± 0.4	1.256 ± 0.02
